Experiment [1] deals with Neisseria meningitidis (N. meningitidis) 13090. Nature of the experiment: Antibacterial activity, MIC (Table 8). The class given is cell-based. In outline: (§1)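 Activity was determined by microbroth dilution. MIC, in μg/mL, is the lowest drug concentration that prevents macroscopically visible growth under the test conditions.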
A further experiment has as its system E. coli ELZ4000. Nature of the experiment: Antibacterial activity, MIC, multi-drug resistant clinical isolate (Table 3). The class given is cell-based. As to conditions: Escherichia coli, ELZ4000, read-out: MIC ELZ4000. Put shortly:
(§2)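 Broth microdilution assay; MIC reported in μg/mL as the lowest drug concentration preventing macroscopically visible growth under test conditions.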

The test system of a further experiment is E. coli ELZ4251. The description is as above. The experiment is classed as cell-based. As to conditions: Escherichia coli. In outline:
as §2

In experiment [2] the test system is Moraxella catarrhalis (M. catarrhalis) 25238. Nature of the experiment: Antibacterial activity, MIC (Table 7). The experiment is classed as cell-based. In outline: as §1
Experiment [3] deals with Escherichia coli (E. coli) BAS849. Kind of experiment: Antibacterial activity, microbroth dilution MIC (Table 1). The experiment is classed as cell-based. Conditions: microbroth dilution, super sensitive Gram-negative E. coli BAS849, read-out: MIC, BAS849. In outline: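 Each strain is exposed to test compound in a microbroth dilution series; visible growth is scored macroscopically, and the lowest growth-free concentration is recorded as MIC in μg/mL.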
In general terms: Dilution methods test growth across graded concentrations, often in twofold steps.

Experiment [4] concerns Staphylococcus aureus (S. aureus) 29213. The experiment is described as above. The class given is cell-based. As to conditions: microbroth dilution, Gram-positive S. aureus 29213, read-out: MIC, 29213. Put shortly:
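Read-out: visual absence of growth. The lowest concentration meeting this gives the MIC, expressed in μg/mL, with microbroth dilution as the method.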

A further experiment relates to E. coli 25922. The experiment is described as above. The class given is cell-based, Escherichia coli. Conditions: Escherichia coli; microbroth dilution; control Gram-negative E. coli 25922 strain; read-out: MIC, 25922. In outline: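 Growth inhibition by microbroth dilution. MIC = lowest μg/mL with no visible growth. Strain 25922 is the control Gram-negative; BAS849 is hypersensitive.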

The test system of experiment [5] is Klebsiella pneumoniae (K. pneumoniae) 35657. Nature of the experiment: Antibacterial activity, MIC (Table 4). The class given is cell-based. As to conditions: K. pneumoniae 35657, read-out: MIC, 35657. Put shortly:
(§3)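 The resistant panel comprises multi-drug resistant clinical isolates. All strains were tested by microbroth dilution, with the MIC in μg/mL taken as the lowest concentration that prevented macroscopically visible growth.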

In experiment [6] the test system is Acinetobacter baumannii (A. baumannii) BAA747. Kind of experiment: Antibacterial activity, MIC (Table 4). The class given is cell-based. Conditions: A. baumannii BAA747, read-out: MIC, BAA747. In outline: as §3
The next experiment deals with K. pneumoniae MXX1232. Kind of experiment: Antibacterial activity, MIC, resistant strain (Table 4). As to conditions: Klebsiella pneumoniae, MXX1232; resistant K. pneumoniae MMX1232, multi-drug resistant clinical isolate; read-out: MIC, MMX1232. The class given is cell-based. Put shortly: as §3
A further experiment relates to A. baumannii MXX2240. The experiment is described as above. The class given is cell-based. As to conditions: Acinetobacter baumannii, MXX2240; resistant A. baumannii MMX2240, multi-drug resistant clinical isolate; read-out: MIC, MMX2240. In outline: as §3
The test system of the next experiment is E. coli LZ3111. Nature of the experiment: Antibacterial activity, MIC, quinolone resistant strain (Table 2). The experiment is classed as cell-based. Conditions: Escherichia coli, LZ3111, read-out: MIC LZ3111. Put shortly:
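Microbroth dilution method; MIC (μg/mL) is the lowest drug concentration preventing macroscopically visible growth under test conditions.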

Experiment [7] relates to Haemophilus influenzae (H. influenzae) 49247. Kind of experiment: Antibacterial activity, MIC (Table 6). The experiment is classed as cell-based. In outline:
as §1

In experiment [8] the test system is Pseudomonas aeruginosa (P. aeruginosa) 27853. Kind of experiment: Antibacterial activity, MIC (Table 5). As to conditions: P. aeruginosa 27853, read-out: MIC, 27853. The experiment is classed as cell-based. In outline: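 Activity was measured by microbroth dilution. The MIC, in μg/mL, is the lowest drug concentration that prevents macroscopically visible growth under the test conditions.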

Molecules are shown by their SMILES. In brackets after ≈: the same amount, converted by molar mass.

On to `CCc1c(-c2ccc3c(c2)cc(CN2CCCC(N(C)C)C2)n3C)[nH]c(=O)c(C(=O)O)c1O` (centres unmarked) [Cpd 250, 6-(2-((3-(dimethylamino)piperidin-1-yl)methyl)-1-methyl-1H-indol-5-yl)-5-ethyl-4-hydroxy-2-oxo-1,2-dihydropyridine-3-carboxylic acid], for which the MIC was less than 1 µg/mL in experiment [1]; 12.5 to 150 µg/mL (≈ 27.6 to 331 µM) in the experiment with E. coli ELZ4000; 12.5 to 150 µg/mL (≈ 27.6 to 331 µM) in the experiment on E. coli ELZ4251; 1 to 3.5 µg/mL (≈ 2.21 to 7.73 µM) in [2]; less than 1 µg/mL in [3]; 3.5 to 12.5 µg/mL (≈ 7.73 to 27.6 µM) in [4]. Moreover, the MIC was in the range of 1 to 3.5 µg/mL (≈ 2.21 to 7.73 µM) in the experiment with E. coli 25922; 3.5 to 12.5 µg/mL (≈ 7.73 to 27.6 µM) in experiment [5]; 3.5 to 12.5 µg/mL (≈ 7.73 to 27.6 µM) in [6]; 12.5 to 150 µg/mL (≈ 27.6 to 331 µM) in the experiment on K. pneumoniae MXX1232; 12.5 to 150 µg/mL (≈ 27.6 to 331 µM) in the experiment on A. baumannii MXX2240; 3.5 to 12.5 µg/mL (≈ 7.73 to 27.6 µM) in the experiment with E. coli LZ3111. Also, the MIC is 3.5 to 12.5 µg/mL (≈ 7.73 to 27.6 µM) in [7] and 12.5 to 150 µg/mL (≈ 27.6 to 331 µM) in experiment [8].
Regarding `CCc1c(-c2ccc3c(c2)cc(CN2CCC(N4CCCCC4)CC2)n3C)[nH]c(=O)c(C(=O)O)c1O` [Cpd 251, 6-(2-(1,4′-bipiperidin-1′-ylmethyl)-1-methyl-1H-indol-5-yl)-5-ethyl-4-hydroxy-2-oxo-1,2-dihydropyridine-3-carboxylic acid], the MIC is less than 1 µg/mL in [1]; 12.5 to 150 µg/mL (≈ 25.4 to 304 µM) in the experiment on E. coli ELZ4000; 12.5 to 150 µg/mL (≈ 25.4 to 304 µM) in the experiment on E. coli ELZ4251; less than 1 µg/mL in experiment [2]; less than 1 µg/mL in experiment [3]; 3.5 to 12.5 µg/mL (≈ 7.1 to 25.4 µM) in experiment [4]. For the same molecule, the MIC in the experiment on E. coli 25922 fell in the range of 1 to 3.5 µg/mL (≈ 2.03 to 7.1 µM); in experiment [5] it was 1 to 3.5 µg/mL (≈ 2.03 to 7.1 µM); in experiment [6], 3.5 to 12.5 µg/mL (≈ 7.1 to 25.4 µM); in the experiment on K. pneumoniae MXX1232, 12.5 to 150 µg/mL (≈ 25.4 to 304 µM); in the experiment with A. baumannii MXX2240 it was 12.5 to 150 µg/mL (≈ 25.4 to 304 µM); in the experiment with E. coli LZ3111 it was 3.5 to 12.5 µg/mL (≈ 7.1 to 25.4 µM). The MIC in [7] fell in the range of 1 to 3.5 µg/mL (≈ 2.03 to 7.1 µM); in experiment [8], 12.5 to 150 µg/mL (≈ 25.4 to 304 µM).
As for `CCc1c(-c2ccc3c(c2)cc(CN2CCC(N)CC2)n3C)[nH]c(=O)c(C(=O)O)c1O` [Cpd 252, 6-(2-((4-aminopiperidin-1-yl)methyl)-1-methyl-1H-indol-5-yl)-5-ethyl-4-hydroxy-2-oxo-1,2-dihydropyridine-3-carboxylic acid], the MIC in experiment [1] is 1 to 3.5 µg/mL (≈ 2.36 to 8.24 µM); with E. coli ELZ4000, 12.5 to 150 µg/mL (≈ 29.4 to 353 µM); with E. coli ELZ4251 it was 12.5 to 150 µg/mL (≈ 29.4 to 353 µM); in [2] it was 3.5 to 12.5 µg/mL (≈ 8.24 to 29.4 µM); in [3], less than 1 µg/mL; in experiment [4], 12.5 to 150 µg/mL (≈ 29.4 to 353 µM). Moreover, the MIC lay within 1 to 3.5 µg/mL (≈ 2.36 to 8.24 µM) in the experiment with E. coli 25922; 1 to 3.5 µg/mL (≈ 2.36 to 8.24 µM) in [5]; 12.5 to 150 µg/mL (≈ 29.4 to 353 µM) in experiment [6]; 12.5 to 150 µg/mL (≈ 29.4 to 353 µM) with K. pneumoniae MXX1232; 12.5 to 150 µg/mL (≈ 29.4 to 353 µM) in the experiment on A. baumannii MXX2240; 1 to 3.5 µg/mL (≈ 2.36 to 8.24 µM) in the experiment with E. coli LZ3111. Further, the MIC in experiment [7] lay within 1 to 3.5 µg/mL (≈ 2.36 to 8.24 µM); in experiment [8] it was 3.5 to 12.5 µg/mL (≈ 8.24 to 29.4 µM).
For `CCc1c(-c2ccc3c(c2)cc(CN2CCC[C@H](N)C2)n3C)[nH]c(=O)c(C(=O)O)c1O` [Cpd 253, (S)-6-(2-((3-aminopiperidin-1-yl)methyl)-1-methyl-1H-indol-5-yl)-5-ethyl-4-hydroxy-2-oxo-1,2-dihydropyridine-3-carboxylic acid], the MIC was 1 to 3.5 µg/mL (≈ 2.36 to 8.24 µM) in [1]; 12.5 to 150 µg/mL (≈ 29.4 to 353 µM) in the experiment on E. coli ELZ4000; 12.5 to 150 µg/mL (≈ 29.4 to 353 µM) with E. coli ELZ4251; 3.5 to 12.5 µg/mL (≈ 8.24 to 29.4 µM) in experiment [2]; less than 1 µg/mL in experiment [3]; 12.5 to 150 µg/mL (≈ 29.4 to 353 µM) in [4]. Further, the MIC fell in the range of 1 to 3.5 µg/mL (≈ 2.36 to 8.24 µM) with E. coli 25922; 1 to 3.5 µg/mL (≈ 2.36 to 8.24 µM) in [5]; 12.5 to 150 µg/mL (≈ 29.4 to 353 µM) in experiment [6]; 12.5 to 150 µg/mL (≈ 29.4 to 353 µM) with K. pneumoniae MXX1232; 12.5 to 150 µg/mL (≈ 29.4 to 353 µM) with A. baumannii MXX2240; 3.5 to 12.5 µg/mL (≈ 8.24 to 29.4 µM) in the experiment on E. coli LZ3111. Also, the MIC was 3.5 to 12.5 µg/mL (≈ 8.24 to 29.4 µM) in experiment [7] and 12.5 to 150 µg/mL (≈ 29.4 to 353 µM) in [8].

These data come from patent publication US9409905B2, “Antibacterial compounds and methods for use” (PTC THERAPEUTICS, INC., priority 2011, dated 2016).
